The record followed here is US5663168A, “Use of compositions for combating tumour diseases” (CIBA-Geigy Corporation, priority 1993, dated 1997).

In this assay the test system is human mammary carcinoma of the MCF-7 line. In words: Inhibition of the growth of a human mammary carcinoma in the mouse model. It counts as in vivo, Balb/c nu/nu-mice. Here is the method: 2×6 female Balb/c nu/nu-mice (Bomholtgard, oestrogen-stimulated with 5 mg of oestradiol in a perforated plastics tube "Silastic®" (Dow Chemical, Michigan, USA)) are implanted with tumours by subcutaneous transplantation of fragments of human mammary carcinoma (about 25 mg) of the MCF-7 line (American Type Culture Collection, Maryland, USA; see H. D. Soule et al., J. Nat. Cancer Inst. 51, 1409-1416 (1973)). After the tumours have grown to a volume of about 30 to 100 mm^3 (after 13 days), 6 mice (test group) are each given twice dally over a period of 25 days a dose of 50 mg/kg of Boc-Phe[C]Phe-(L)-Val-(L)-Phe-morpholin-4-ylamide (dissolved in a concentration of 2 mg/ml in a 5% solution of dimethyl sulfoxide and 20% hydroxypropyl-β-cyclodextrin in water, prepared by dissolution of the test compound in dimethyl sulfoxide and dilution with aqueous hydroxypropyl-β-cyclodextrin solution). […] After 25 days (50 administrations) the following tumour volumes (mean value) are determined:
The tumour growth is determined by measuring the diameter along the longitudinal axis of the tumour (L) and perpendicular thereto (D) (in a living animal by means of a calliper gauge). The tumour volumes are calculated in accordance with the formula π×L×D^2 /6 (Evans, B. D., et al., Brit. J. Cancer 45, 466-468 (1982)).

Turning to “Boc-Phe[C]Phe-(L)-Val-(L)-Phe-morpholin-4-ylamide”, the “tumour growth in comparison with the control group” value (MCF-7 tumours in female Balb/c nu/nu-mice, 50 mg/kg orally twice daily for 25 days) was “marked reduction in tumour growth”. Besides, the “tumour volume (mean value)” value (subcutaneous MCF-7 tumour fragments in oestrogen-stimulated female Balb/c nu/nu-mice, 50 mg/kg orally twice daily, after 25 days (50 administrations), placebo control 0.96 cm^3) is on record as 0.30 cm^3.
